Where “and” joins values, the source holds several entries; their conditions need not be identical. Equal values may be shown once. Records with an inconclusive call do not appear.
System: BDF1 mice, colon carcinoma 38 sc, T/C %
Experiment: NCI In Vivo Anticancer Drug Screen. Data for tumor model Colon Carcinoma 38 (subcutaneous) in B6D2F1 (BDF1) mice
Conditions: endpoint: median tumor weight (est.), higher = larger tumour
Description: The antitumor activity of compounds was measured in mice bearing transplantable tumors. Survival or tumor size were measured and the results are expressed as the measurement made in the treated group (T) divided by the measurement made in the vehicle treated control group (C). The tumor model used in this assay is Colon Carcinoma 38 (subcutaneous) in B6D2F1 (BDF1) mice

[1] = dose: 25.0 mg/kg/injection, schedule: Q07DX002 (ip), vehicle: saline
[2] = dose: 50.0 mg/kg/injection, schedule: Q07DX002 (ip), vehicle: saline
[3] = dose: 100.0 mg/kg/injection, schedule: Q07DX002 (ip), vehicle: saline
[4] = dose: 200.0 mg/kg/injection, schedule: Q07DX002 (ip), vehicle: saline
[5] = dose: 400.0 mg/kg/injection, schedule: Q07DX002 (ip), vehicle: saline
[6] = dose: 800.0 mg/kg/injection, schedule: Q07DX002 (ip), vehicle: saline
[7] = dose: 25.0 mg/kg/injection, schedule: Q07DX002 (ip), vehicle: saline with Tween-80
[8] = dose: 50.0 mg/kg/injection, schedule: Q07DX002 (ip), vehicle: saline with Tween-80
[9] = dose: 50.0 mg/kg/injection, schedule: Q07DX002 (ip), vehicle: Klucel (hydroxypropylcellulose) (HPC)
[10] = dose: 100.0 mg/kg/injection, schedule: Q07DX002 (ip), vehicle: Klucel (hydroxypropylcellulose) (HPC)
[11] = dose: 200.0 mg/kg/injection, schedule: Q07DX002 (ip), vehicle: Klucel (hydroxypropylcellulose) (HPC)
[12] = dose: 200.0 mg/kg/injection, schedule: Q07DX002 (ip), vehicle: saline with Tween-80

`NC(=S)N/N=C/c1ccc(O)cn1` was tested, and the T/C [1] was 123 % of control, the T/C (dose: 25.0 mg/kg/injection, schedule: Q07DX002 (ip), vehicle: suspension in saline) was 83 % of control and the T/C [2] was 67 % of control. The T/C (dose: 50.0 mg/kg/injection, schedule: Q07DX002 (ip), vehicle: suspension in saline) was 72 % of control, the T/C [3] was 67 % of control and the T/C (dose: 100.0 mg/kg/injection, schedule: Q07DX002 (ip), vehicle: suspension in saline) was 108 % of control. For the same compound, the T/C [4] was 72 % of control, the T/C [5] was 71 % of control and the T/C (dose: 400.0 mg/kg/injection, schedule: Q07DX002 (ip), vehicle: suspension in saline) was 105 % of control. The T/C [6] was 67 % of control and the T/C (dose: 800.0 mg/kg/injection, schedule: Q07DX002 (ip), vehicle: suspension in saline) was 110 % of control.
With `COC(=O)C[C@](O)(CCCC(C)(C)O)C(=O)O[C@@H]1C(OC)=C[C@]23CCCN2CCc2cc4c(cc2[C@H]13)OCO4` the T/C (dose: 0.25 mg/kg/injection, schedule: Q07DX003 (ip), vehicle: saline) was 93 % of control, the T/C (dose: 0.5 mg/kg/injection, schedule: Q07DX003 (ip), vehicle: saline) was 95 % of control and the T/C (dose: 1.0 mg/kg/injection, schedule: Q07DX003 (ip), vehicle: saline) was 64 % of control. For the same compound, the T/C (dose: 2.0 mg/kg/injection, schedule: Q07DX003 (ip), vehicle: saline) was 53 % of control.
In the case of `O=S(=O)(c1ccccc1)N1CN2CCN(C2)C1`, the T/C [7] is reported as 94 % of control and the T/C [8] is reported as 62 % of control.
In the case of `Nc1ccn(C2OC(CO)C(O)C2O)c(=O)n1` (stereo not given), the T/C [3] is reported as 69 % of control, the T/C (dose: 150.0 mg/kg/injection, schedule: Q07DX002 (ip), vehicle: saline) is reported as 74 % of control and the T/C [5] is reported as 75 % of control and 95 % of control. The T/C (dose: 600.0 mg/kg/injection, schedule: Q07DX002 (ip), vehicle: saline) was 29 % of control and 43 % of control, the T/C [6] was 35 % of control and the T/C (dose: 1200.0 mg/kg/injection, schedule: Q07DX002 (ip), vehicle: saline) was 44 % of control and 55 % of control.
In the case of `CN(C)C(=O)SC1=C(c2c(Cl)cccc2Cl)C(=O)c2ccccc21`, the T/C [9] is reported as 76 % of control, the T/C [10] is reported as 94 % of control and the T/C [11] is reported as 86 % of control. For the same compound, the T/C (dose: 400.0 mg/kg/injection, schedule: Q07DX002 (ip), vehicle: Klucel (hydroxypropylcellulose) (HPC)) was 82 % of control and the T/C (dose: 800.0 mg/kg/injection, schedule: Q07DX002 (ip), vehicle: Klucel (hydroxypropylcellulose) (HPC)) was 91 % of control.
With `C[C@@]12C(=O)OC(=O)[C@]1(C)[C@H]1CC[C@@H]2O1` the T/C (dose: 0.12 mg/kg/injection, schedule: Q07DX002 (ip), vehicle: Klucel (hydroxypropylcellulose) (HPC)) was 88 % of control, the T/C (dose: 0.25 mg/kg/injection, schedule: Q07DX002 (ip), vehicle: Klucel (hydroxypropylcellulose) (HPC)) was 65 % of control and the T/C (dose: 0.5 mg/kg/injection, schedule: Q07DX002 (ip), vehicle: Klucel (hydroxypropylcellulose) (HPC)) was 69 % of control. For the same compound, the T/C (dose: 1.0 mg/kg/injection, schedule: Q07DX002 (ip), vehicle: Klucel (hydroxypropylcellulose) (HPC)) was 76 % of control and the T/C (dose: 2.0 mg/kg/injection, schedule: Q07DX002 (ip), vehicle: Klucel (hydroxypropylcellulose) (HPC)) was 86 % of control.
`C=C1C(C)C2C(Cc3ccccc3)NC(=O)C23C(OC(C)=O)C=CC(C)(O)C(=O)C(C)C/C=C/C3C1O` (stereo not given) was tested, and the T/C (dose: 0.31 mg/kg/injection, schedule: Q07DX003 (ip), vehicle: Klucel (hydroxypropylcellulose) (HPC)) was 93 % of control, the T/C (dose: 0.62 mg/kg/injection, schedule: Q07DX003 (ip), vehicle: Klucel (hydroxypropylcellulose) (HPC)) was 53 % of control and the T/C (dose: 1.25 mg/kg/injection, schedule: Q07DX003 (ip), vehicle: Klucel (hydroxypropylcellulose) (HPC)) was 72 % of control. For the same compound, the T/C (dose: 2.5 mg/kg/injection, schedule: Q07DX003 (ip), vehicle: Klucel (hydroxypropylcellulose) (HPC)) was 100 % of control, the T/C (dose: 5.0 mg/kg/injection, schedule: Q07DX003 (ip), vehicle: Klucel (hydroxypropylcellulose) (HPC)) was 84 % of control and the T/C (dose: 10.0 mg/kg/injection, schedule: Q07DX003 (ip), vehicle: Klucel (hydroxypropylcellulose) (HPC)) was 105 % of control.
In the case of `CC[C@H](CC[C@@H](C)C1CC[C@H]2[C@@H]3CC=C4C[C@@H](OP(=O)(N5CC5)N5CC5)CC[C@]4(C)[C@H]3CC[C@]12C)C(C)C` (stereo not given in full), the T/C [8] is reported as 95 % of control, the T/C [12] is reported as 79 % of control and the T/C (dose: 400.0 mg/kg/injection, schedule: Q07DX002 (ip), vehicle: saline with Tween-80) is reported as 92 % of control.
In the case of `CC(C)(C)N1CC1CNC(=O)C(=O)NCC1CN1C(C)(C)C` (stereo not given), the T/C (dose: 3.12 mg/kg/injection, schedule: Q07DX002 (ip), vehicle: saline with Tween-80) is reported as 81 % of control and 106 % of control.
For `C[n+]1c(-c2cccc(OCCOCCOc3cccc(-c4c5cc(N)ccc5c5ccc(N)cc5[n+]4C)c3)c2)c2cc(N)ccc2c2ccc(N)cc21`, the T/C (dose: 1.0 mg/kg/injection, schedule: Q07DX002 (ip), vehicle: water) was 53 % of control, the T/C (dose: 4.0 mg/kg/injection, schedule: Q07DX002 (ip), vehicle: water) was 44 % of control and 45 % of control and the T/C (dose: 32.0 mg/kg/injection, schedule: Q07DX002 (ip), vehicle: water) was 81 % of control.
`C=C1C(C2(C)C(OC(C)=O)CC(=O)OC(C)(COC(C)=O)C2CC(=O)OC)C(OC=O)C(OC(=O)C(O)C(C)CC)C2(C)C(c3ccoc3)CC(=O)C12O` (stereo not given) was tested, and the T/C (dose: 3.0 mg/kg/injection, schedule: Q07DX002 (ip), vehicle: Klucel (hydroxypropylcellulose) (HPC)) was 64 % of control, the T/C (dose: 6.0 mg/kg/injection, schedule: Q07DX002 (ip), vehicle: Klucel (hydroxypropylcellulose) (HPC)) was 68 % of control and the T/C (dose: 12.0 mg/kg/injection, schedule: Q07DX002 (ip), vehicle: Klucel (hydroxypropylcellulose) (HPC)) was 77 % of control. For the same compound, the T/C (dose: 24.0 mg/kg/injection, schedule: Q07DX002 (ip), vehicle: Klucel (hydroxypropylcellulose) (HPC)) was 90 % of control and the T/C (dose: 48.0 mg/kg/injection, schedule: Q07DX002 (ip), vehicle: Klucel (hydroxypropylcellulose) (HPC)) was 61 % of control.
In the case of `CN(C(=S)S(=O)(=O)C12CC3CC(CC(C3)C1)C2)c1ccccc1`, the T/C (dose: 3.12 mg/kg/injection, schedule: Q07DX002 (ip), vehicle: Klucel (hydroxypropylcellulose) (HPC)) is reported as 104 % of control, the T/C (dose: 6.25 mg/kg/injection, schedule: Q07DX002 (ip), vehicle: Klucel (hydroxypropylcellulose) (HPC)) is reported as 92 % of control and 102 % of control and the T/C (dose: 12.5 mg/kg/injection, schedule: Q07DX002 (ip), vehicle: Klucel (hydroxypropylcellulose) (HPC)) is reported as 116 % of control and 93 % of control. The T/C [9] was 101 % of control and 106 % of control, the T/C [10] was 115 % of control and the T/C [11] was 105 % of control.
With `CC1CN=C(c2ccc(NC(=O)c3ccc(C(=O)Nc4ccc(C5=NCC(C)N5)cc4)cc3)cc2)N1` (stereo not given) the T/C (dose: 12.5 mg/kg/injection, schedule: Q07DX003 (ip), vehicle: Klucel (hydroxypropylcellulose) (HPC)) was 78 % of control and 79 % of control, the T/C (dose: 25.0 mg/kg/injection, schedule: Q07DX003 (ip), vehicle: Klucel (hydroxypropylcellulose) (HPC)) was 115 % of control and 102 % of control and the T/C (dose: 200.0 mg/kg/injection, schedule: Q07DX003 (ip), vehicle: Klucel (hydroxypropylcellulose) (HPC)) was 86 % of control. The T/C (dose: 400.0 mg/kg/injection, schedule: Q07DX003 (ip), vehicle: Klucel (hydroxypropylcellulose) (HPC)) was 63 % of control.
In the case of `COc1cc(C(=O)N/N=C/c2cccc([N+](=O)[O-])c2)cc(OC)c1OC`, the T/C [7] is reported as 93 % of control, the T/C [8] is reported as 124 % of control and the T/C (dose: 100.0 mg/kg/injection, schedule: Q07DX002 (ip), vehicle: saline with Tween-80) is reported as 107 % of control. For the same compound, the T/C [12] was 101 % of control.
`OCCCN1CCCCC1CO` (stereo not given) was tested, and the T/C [1] was 91 % of control, the T/C [2] was 110 % of control and the T/C [3] was 108 % of control. The T/C [4] was 99 % of control and the T/C [5] was 98 % of control.
For `CC(=O)OC1(C)CC(C)C(=O)C(C(O)CC2CC(=O)NC(=O)C2)C1` (stereo not given), the T/C (dose: 47.0 micrograms/kg/injection, schedule: Q07DX002 (ip), vehicle: saline) was 106 % of control, the T/C (dose: 94.0 micrograms/kg/injection, schedule: Q07DX002 (ip), vehicle: saline) was 123 % of control and the T/C (dose: 188.0 micrograms/kg/injection, schedule: Q07DX002 (ip), vehicle: saline) was 116 % of control. For the same compound, the T/C (dose: 375.0 micrograms/kg/injection, schedule: Q07DX002 (ip), vehicle: saline) was 117 % of control and the T/C (dose: 750.0 micrograms/kg/injection, schedule: Q07DX002 (ip), vehicle: saline) was 101 % of control.

From PubChem BioAssay AID212 (DTP/NCI, 2004)
